Experimental data from paper PMC8955938, “c-Myc Protein Level Affected by Unsymmetrical Bisacridines Influences Apoptosis and Senescence Induced in HCT116 Colorectal and H460 Lung Cancer Cells” (International Journal of Molecular Sciences, 2022).
Where “and” joins values, the source holds several entries; their conditions need not be identical. Identical values can stand only once.

How the values were obtained:
Format in all cases: cell-based, human
CCD 841 CoN cells = assay: MTT cell growth inhibition assay, CCD 841 CoN; conditions: CCD 841 CoN normal cells, 72 h
Protocol: To assess cell viability, the MTT assay was used. HCT116, H460, CCD 841 CoN and MRC-5 cells (20,000/well and 50,000/well for cancer and normal cells, respectively) were seeded in 24-well plates, and the following UAs were added at concentrations up to 10 μM: C-2028, C-2041, C-2045 and C-2053. Stock solutions (10 mM) were prepared in sterile water, as well as dilutions, also in water. After 72 h, 3-(4, 5-dimethylthiazol-2-yl)-2,5-diphenyltetrazolium bromide (MTT; 800 μg/well) was added for 3 h, then the formazan crystals were dissolved in DMSO, and absorbance was read at 540 nm. Each point was conducted at least 4 times, and data are expressed relative to controls. The concentration of the drug required to inhibit cells growth by 50 (IC50), 80 (IC80) and 90% (IC90) compared to untreated control cells was determined from the curves plotting survival as a function of dose.

[1] = test system: MYC gene expression in H460 cells; assay: RT-PCR MYC expression in H460; conditions: H460, IC90 doses; for relative mRNA level of MYC gene: with time of incubation up to 120 h
Protocol: HCT116, H460, CCD 841 CoN and MRC-5 cells after treatment with UAs were collected, washed twice with ice-cold PBS and resuspended in […] of PBS. mRNA was isolated using High Pure RNA Isolation Kit according to the manufacturer’s instructions (Roche, Basel, Switzerland). Briefly, cells were lysed in lysis-binding buffer and transferred to a filter tube. Contaminating DNA was removed by 15 min incubation of the filter tube with DNase I solution. The filter tube was washed once with buffer I and twice with buffer II, and after centrifugation, total RNA was eluted using the elution buffer. RNA concentration was determined by NanoDrop One (Thermo Scientific); 1 µg of RNA was reverse transcribed using Transcriptor First Strand cDNA Synthesis Kit according to the manufacturer’s instructions (Roche) in 20 µL of reaction containing 1 µg of RNA, […] anchored-oligo(dT)18Primer, 8 mM MgCl2, 20 U of Protector RNase Inhibitor, deoxynucleotide mix (1 mM each) and 22 U of Transcriptor Reverse Transcriptase. The reverse transcription reaction was carried out for 30 min at 55 °C and stopped by heating to 85 °C for 5 min and placing on ice. The cDNA solution was stored at −20 °C until use. Real-time polymerase chain reaction (PCR) was performed on 2 µL of cDNA using 0.2 µM forward and reverse primers on LightCycler® 480 using LightCycler® 480 SYBR Green I Master according to manufacturer’s instructions (Roche). Primers were designed using BLAST website. Their efficiency was checked, and they were ordered from Genomed (Warsaw, Poland). The sequences of primers were as follows: MYC set 1 forward primer, […]; MYC set 1 reverse primer, […]; MYC set 2 forward primer, […]; MYC set 2 reverse primer, […]; KRAS forward primer, […]; KRAS reverse primer, […]; reference gene, GAPDH forward primer ACCCACTCCTCCACCTTTG; and GAPDH reverse primer, CTCTTGTGCTCTTGCTGGG. Cycling conditions were as follows: 1 cycle for 7 min at 95 °C (preincubation), 45 cycles of amplification: 10 s at 95 °C (denaturation), 20 s at 62 °C (annealing), 30 s at 72 °C (extension), 1 cycle for obtaining melting curve and 1 cycle for 10 s at 40 °C (cooling). The results were standardized to the reference gene GADPH. The relative expression level of MYC and KRAS was quantified using comparative method […]. The results were obtained from three independent experiments, each of which was analyzed at least twice.

HCT116 cells = assay: Cell cycle analysis (PI, flow cytometry), HCT116; conditions: HCT116, IC90 doses; for cells with more than 4N DNA (polyploid): during the time of incubation (time not specified), control 10%; for cells in G2/M (4N DNA): during the treatment after accumulation at 24 h (time not specified)
Protocol: After drug treatment, trypsinized and floating cells (2 × 10^6) were pooled, washed twice with ice-cold PBS and fixed in 70% (v/v) ethanol overnight at −20 °C. Cells were stained with propidium iodide (PI) (BD Biosciences, San Jose, CA, USA) and monitored by FACS Accuri C6 (BD Biosciences, San Jose, CA, USA).

[2] = test system: active caspase-3 in H460 cells; assay: Active caspase-3 flow cytometry, H460; conditions: H460, IC90 doses, 120 h
Protocol: (§1) Caspase-3 activity was determined using Alexa Fluor 647-conjugated anti-active caspase-3 antibody (BD Biosciences, San Diego, CA, USA) according to the manufacturer’s instructions. Briefly, HCT116 and H460 cells (1 × 10^6) were trypsinized, pelleted, washed twice with ice-cold PBS and fixed in Fixation Buffer for 20 min on ice. After fixation, cells were rinsed twice with Perm Wash Buffer, stained with Alexa Fluor 647-conjugated anti-active caspase-3 antibody for 30 min, rinsed with Perm Wash Buffer and analyzed by flow cytometry with FACS Accuri C6 (BD, San Jose, CA, USA).

[3] = test system: cleaved PARP in H460 cells; assay: PARP cleavage flow cytometry, H460; conditions: H460, IC90 doses
Protocol: as §1, with “PARP cleavage” for “Caspase-3 activity”, “anti-cleaved PARP” for “anti-active caspase-3”

H460 cells = assay: Mitochondrial transmembrane potential (JC-1), H460; conditions: H460, IC90 doses, 120 h
Protocol: Changes in the mitochondrial membrane potential (ΔΨm) were analyzed by flow cytometry using 5,5′,6,6′-tetrachloro-1,1′,3,3′-tetraethylbenzimidazolyl-carbocyanine iodide, JC-1 (BD Biosciences, San Jose, CA, USA) according to manufacturer’s specification. Briefly, after treatment, HCT116 and H460 cells (1 × 10^6) were trypsinized, pelleted, resuspended in media and stained with JC-1 for 15 min at 37 °C. After staining, cells were washed twice with assay buffer and analyzed by flow cytometry with FACS Accuri C6 (BD, San Jose, CA, USA). The loss of ΔΨm was monitored based on the decrease in JC-1 red fluorescence concurrent with the increase in green fluorescence.

| SMILES | IC90 (CCD 841 CoN cells; Homo sapiens) [nM] | IC50 (CCD 841 CoN cells; Homo sapiens, CCD-841CoN) [nM] | relative mRNA level of MYC gene [1] | Poli (polyploid cells) (HCT116 cells; 24 h) [%] | cells in G1 (HCT116 cells; 24 h) | cells in G2/M (HCT116 cells; 24 h) [%] | cells in S (HCT116 cells; 24 h) | cells in Sub-G1 (HCT116 cells; 24 h) [%] | Poli (polyploid cells) (HCT116 cells; 72 h) [%] | cells in G1 (HCT116 cells; 72 h) [%] | cells in G2/M (HCT116 cells; 72 h) [%] | cells in S (HCT116 cells; 72 h) [%] | cells in Sub-G1 (HCT116 cells; 72 h) [%] | Poli (polyploid cells) (HCT116 cells; 120 h) [%] | cells in G1 (HCT116 cells; 120 h) | cells in G2/M (HCT116 cells; 120 h) [%] | cells in S (HCT116 cells; 120 h) [%] | cells with more than 4N DNA (polyploid) (HCT116 cells) | cells with active caspase-3 [2] [%] | cells with cleaved PARP ([3]; 120 h) | also measured |
| --- | --- | --- | --- | --- | --- | --- | --- | --- | --- | --- | --- | --- | --- | --- | --- | --- | --- | --- | --- | --- | --- |
| CN(CCCNc1c2ccccc2nc2cccc([N+](=O)[O-])c12)CCCNc1ccc2ncn3c4ccccc4c(=O)c1c23 [Compound C-2028] | 3690 ± 1080 | ~20 | stayed at the similar level | 5.73 ± 0.93 | 24.89 ± 3.90% | 45.89 ± 3.13 | 19.33 ± 1.58% | 3.37 ± 0.69 | 5.11 ± 1.54 | 28.63 ± 5.96 | 21.02 ± 4.86 | 7.67 ± 2.54 | 36.97 ± 8.93 | 5.73 ±2.33 | 25.39 ± 3.25% | 26.26 ± 4.90 | 4.95 ± 1.90 | 5% | 44.9 | about 20% | IC50 (CCD 841 CoN cells): 25 ± 7 nM; cells in Sub-G1 (HCT116 cells; 120 h): 37.46 ± 9.35% and 37.5% and 30%; cells in G2/M (4N DNA) (HCT116 cells): ~23%; cells with decreased mitochondrial transmembrane potential (ΔΨm) (H460 cells): 44.3% |
| O=c1c2ccccc2n2cnc3ccc(NCCCN4CCN(CCCNc5c6ccccc6nc6cccc([N+](=O)[O-])c56)CC4)c1c32 [Compound C-2041] | 5120 ± 1090 | 36 ± 5 | 1.65 | 4.22 ± 2.00 | 28.75 ± 3.88% and 29% | 29.92 ± 4.56 | 25.97 ± 2.80% and 26% | 11.81 ± 1.94 | 4.47 ± 2.13 | 22.16 ± 5.06 | 14.29 ± 1.52 | 9.59 ± 2.24 | 48.83 ± 7.71 | 4.64 ± 2.56 | 13.63 ± 3.71% and 13.6% | 9.44 ± 3.88 | 3.25 ± 1.05 | 5% | 35.5 | about 20% | cells with decreased mitochondrial transmembrane potential (ΔΨm) (H460 cells): 46.8% |
| Cc1ccc([N+](=O)[O-])c2c(NCCCN(C)CCCNc3ccc4ncn5c6ccc(O)cc6c(=O)c3c45)c3ccccc3nc12 [Compound C-2045] | 5340 ± 1850 | ~300 | around 0.55 | 4.91 ± 2.33 | 24.61 ± 2.63% | 50.18 ± 2.39 | 16.33 ± 1.34% | 3.90 ± 0.83 | 12.20 ± 1.85 | 28.51 ± 4.31 | 34.06 ± 3.35 | 6.15 ± 0.70 | 17.38 ± 4.00 | 15.17 ± 3.74 | 22.11 ± 2.54% | 22.94 ± 2.48 | 4.56 ± 1.19 | around 15% | 51.6 | 28.2% | IC50 (CCD 841 CoN cells): 338 ± 27 nM; drop of MYC mRNA level [1]: 50%; cells in Sub-G1 (HCT116 cells; 120 h): 35.40 ± 5.84% and 35.4% and 30%; cells in G2/M (4N DNA) (HCT116 cells): ~23%; cells with cleaved PARP ([3]; 72 h): 53.9%; cells with decreased mitochondrial transmembrane potential (ΔΨm) (H460 cells): 62.5% |
| Cc1ccc([N+](=O)[O-])c2c(NCCCN(C)CCCNc3ccc4ncn5c6ccccc6c(=O)c3c45)c3ccccc3nc12 [Compound C-2053] | 4100 ± 470 | 240 ± 40 | around 0.55 | 8.89 ± 1.38 | 22.34 ± 2.79% | 44.81 ± 7.10 | 19.19 ± 1.77% | 3.06 ± 1.09 | 11.02 ± 2.20 | 35.18 ± 2.63 | 36.32 ± 3.14 | 5.43 ± 1.59 | 10.45 ± 2.56 | 14.62 ± 4.62 | 30.06 ± 4.35% | 27.20 ± 4.16 | 4.10 ± 0.56 | around 15% | 54.1 | 43.3% | drop of MYC mRNA level [1]: 50%; cells in Sub-G1 (HCT116 cells; 120 h): 23.64 ± 4.86% and 23.6%; cells in G2/M (4N DNA) (HCT116 cells): ~23%; cells with cleaved PARP ([3]; 72 h): 47.8%; cells with decreased mitochondrial transmembrane potential (ΔΨm) (H460 cells): 67.8% |
